Measured values from ChEMBL document CHEMBL1201862, “PubChem BioAssay data set” (2004).
The source made the active and inactive calls.

Experiments:
BJ [1] = assay: BJ-TERT fibroblast viability loss – cell-based, RAS-independent, luminescence, dose response (AID 1933); type: functional; conditions: Homo sapiens
BJ [2] = assay: BJ-TERT-LT-ST fibroblast viability loss – cell-based, RAS-independent, luminescence, dose response (AID 1935); type: functional; conditions: Homo sapiens;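 further: BJ fibroblasts immortalized with TERT plus LT and ST oncogenes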
[3] = luciferase reporter signal reduction – luminescence, H4-C neuroglioblastoma cells, dose response (AID 2458); type: functional, cell-based;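 further: H4 neuroglioblastoma cells stably carrying a luciferase reporter gene fusion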
[4] = DRD fibroblast viability loss – cell-based, non-viral oncogenic, luminescence, dose response (AID 1934); type: functional; conditions: Homo sapiens
[5] = alpha-synuclein stem-loop translation blockers – luminescence, H4 neuroglioblastoma cells, dose confirmation, confirmation (AID 2454); type: functional, cell-based;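 further: H4 neuroglioblastoma cells carrying an alpha-synuclein 5'UTR luciferase reporter; potency for inhibition of the luciferase signal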
[6] = alpha-synuclein stem-loop luciferase translation blockers – H4 neuroglioma cells, luminescence, confirmation (AID 1988); type: functional, cell-based
Paired box protein Pax-8 = Paired box protein Pax-8 (Homo sapiens, UniProt Q06710); assay: PAX8 transcriptional activity inhibition in RMG-I – RMG-I cells, luciferase, cherry-pick, dose response (AID 687027); type: functional, cell-based;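 further: luciferase reporter driven by Pax8 target thyroperoxidase promoter measured by SteadyGlo luminescence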
[7] = HEK-293T viability loss, compound-treated – cell-based, uHTS hits, cytotoxicity control for B/T-cell NF-kB inhibitor project, dose response (AID 489019); type: functional;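 further: IC50 reflects cytotoxicity as loss of cell viability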
cells [8] = type: functional, cell-based
[9] = luciferase reporter signal suppression in cells – H4 neuroglioma cells, luminescence, dose response (AID 1990); type: functional, cell-based
Cytochrome P450 1A2 = target: T1, Cytochrome P450 1A2 (Homo sapiens, UniProt P05177);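 further: PubChem cytochrome P450 panel assay, CYP1A2 panel member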
T1 sequence (P05177 whole entry): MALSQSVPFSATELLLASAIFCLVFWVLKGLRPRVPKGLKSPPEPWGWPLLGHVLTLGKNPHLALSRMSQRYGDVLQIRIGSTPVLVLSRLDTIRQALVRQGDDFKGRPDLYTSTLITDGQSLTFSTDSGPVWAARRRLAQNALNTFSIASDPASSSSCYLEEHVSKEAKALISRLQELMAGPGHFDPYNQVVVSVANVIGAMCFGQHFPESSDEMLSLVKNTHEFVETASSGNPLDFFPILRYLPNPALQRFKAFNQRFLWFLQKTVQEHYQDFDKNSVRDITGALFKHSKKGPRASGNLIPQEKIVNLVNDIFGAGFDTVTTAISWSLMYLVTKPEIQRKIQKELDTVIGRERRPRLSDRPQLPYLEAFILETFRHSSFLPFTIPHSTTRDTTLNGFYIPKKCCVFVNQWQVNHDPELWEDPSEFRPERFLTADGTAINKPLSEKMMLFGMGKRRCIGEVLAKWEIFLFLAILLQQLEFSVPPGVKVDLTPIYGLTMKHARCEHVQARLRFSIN

Jurkat = assay: blockers of NF-kB activation in T cells – Jurkat, luciferase reporter, luminescence, B- and T-cell, dose response (AID 489004); type: functional, cell-based; conditions: Homo sapiens;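 further: NF-kB luciferase reporter Jurkat cells stimulated with PMA plus ionomycin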
BJ [10] = assay: cells; type: functional, cell-based; conditions: Homo sapiens
ORF 73 = target: T2, ORF 73 (Human herpesvirus 8, UniProt O40947); assay: KSHV LANA DNA-binding disruption – biochemical, fluorescence polarization, cherry-picked samples, dose response (AID 504725); parameters: species or system Human gammaherpesvirus 8;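 further: fluorescence polarization of a labeled DNA duplex reporting LANA DNA binding; potency is for inhibitors that block LANA binding to the DNA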
T2 sequence (O40947 whole entry): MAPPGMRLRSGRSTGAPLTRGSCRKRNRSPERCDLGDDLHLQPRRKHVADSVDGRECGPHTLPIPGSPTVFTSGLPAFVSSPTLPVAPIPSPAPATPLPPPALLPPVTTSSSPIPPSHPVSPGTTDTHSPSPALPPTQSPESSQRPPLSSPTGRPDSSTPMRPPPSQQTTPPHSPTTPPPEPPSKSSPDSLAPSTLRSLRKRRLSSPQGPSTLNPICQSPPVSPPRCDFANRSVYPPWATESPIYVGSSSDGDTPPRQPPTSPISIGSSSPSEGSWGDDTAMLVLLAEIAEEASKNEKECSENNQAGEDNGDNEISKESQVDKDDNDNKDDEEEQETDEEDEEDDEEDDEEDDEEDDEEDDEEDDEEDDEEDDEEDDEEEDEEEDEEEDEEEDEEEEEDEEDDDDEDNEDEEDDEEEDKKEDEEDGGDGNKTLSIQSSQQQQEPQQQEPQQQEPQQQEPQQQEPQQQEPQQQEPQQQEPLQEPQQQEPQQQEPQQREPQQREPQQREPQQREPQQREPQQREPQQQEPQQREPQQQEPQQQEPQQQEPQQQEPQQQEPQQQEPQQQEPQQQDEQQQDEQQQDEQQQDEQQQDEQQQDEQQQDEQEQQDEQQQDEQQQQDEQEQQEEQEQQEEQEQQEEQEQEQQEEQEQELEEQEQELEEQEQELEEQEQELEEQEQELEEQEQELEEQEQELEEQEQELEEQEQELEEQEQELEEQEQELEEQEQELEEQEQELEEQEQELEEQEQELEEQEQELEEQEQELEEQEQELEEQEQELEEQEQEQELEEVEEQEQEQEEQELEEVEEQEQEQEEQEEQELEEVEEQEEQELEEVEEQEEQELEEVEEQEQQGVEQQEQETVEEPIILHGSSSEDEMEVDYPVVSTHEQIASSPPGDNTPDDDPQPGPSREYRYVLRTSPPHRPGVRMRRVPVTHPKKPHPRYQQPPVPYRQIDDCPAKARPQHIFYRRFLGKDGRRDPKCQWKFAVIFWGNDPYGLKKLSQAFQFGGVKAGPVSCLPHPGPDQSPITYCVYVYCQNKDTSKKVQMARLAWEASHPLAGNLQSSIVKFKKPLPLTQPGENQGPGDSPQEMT

Keap1/Nrf2 = Keap1/Nrf2 (Homo sapiens, UniProt Q14145); assay: disruptors of Keap1 binding to Nrf2 peptide – biochemical, fluorescence polarization, cherry-picked samples, dose response (AID 588683)
[11] = target: Beta-adrenergic receptor kinase 1 (Homo sapiens, UniProt P25098); assay: blockers of aptamer binding to GRK2 – biochemical, flow cytometry beads, FAM-aptamer, powder set 1, dose response (AID 588720)
[12] = target: T3, Carboxy-terminal domain RNA polymerase II polypeptide A small phosphatase 1 (Homo sapiens, UniProt Q9GZU7); assay: CTDSP1 inhibitors, concentration-response, biochemical, absorbance readout, ultra-high-throughput screen actives (AID 540297); type: functional
T3 sequence (Q9GZU7 whole entry): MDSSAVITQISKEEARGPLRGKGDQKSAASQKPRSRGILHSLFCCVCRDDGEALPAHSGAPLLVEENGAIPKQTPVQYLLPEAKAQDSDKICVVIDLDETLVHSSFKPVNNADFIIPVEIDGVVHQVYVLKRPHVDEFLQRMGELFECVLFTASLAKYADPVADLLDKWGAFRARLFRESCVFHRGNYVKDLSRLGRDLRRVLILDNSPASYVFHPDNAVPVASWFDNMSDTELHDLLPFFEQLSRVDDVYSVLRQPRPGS

Cytochrome P450 3A4 = Cytochrome P450 3A4 (Homo sapiens, UniProt P08684);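 further: CYP3A4 tested as one member of a cytochrome P450 panel screen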
[13] = Counterscreen for AddAB inhibitors: absorbance-based bacterial cell-based high throughput dose response assay for inhibitors of bacterial viability. [Related pubchem assays (depositor defined):AID435030, AID449728, AID449731, AID488942, AID488955, AID488956]; type: functional
Exodeoxyribonuclease V = Exodeoxyribonuclease V (Escherichia coli (strain K12), UniProt P04993+P07648+P08394); assay: RecBCD inhibition via phage-restricted bacterial growth – absorbance, V66 E. coli, mutant T4 phage, counter-screen for AddAB inhibitor project, dose response (AID 492957); type: functional, cell-based, Escherichia coli str. K-12 substr. MG1655
Estrogen receptor = target: T4, Estrogen receptor (Homo sapiens, UniProt P03372);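 further: potency for inhibiting coactivator peptide recruitment to the receptor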
T4 sequence (P03372 whole entry): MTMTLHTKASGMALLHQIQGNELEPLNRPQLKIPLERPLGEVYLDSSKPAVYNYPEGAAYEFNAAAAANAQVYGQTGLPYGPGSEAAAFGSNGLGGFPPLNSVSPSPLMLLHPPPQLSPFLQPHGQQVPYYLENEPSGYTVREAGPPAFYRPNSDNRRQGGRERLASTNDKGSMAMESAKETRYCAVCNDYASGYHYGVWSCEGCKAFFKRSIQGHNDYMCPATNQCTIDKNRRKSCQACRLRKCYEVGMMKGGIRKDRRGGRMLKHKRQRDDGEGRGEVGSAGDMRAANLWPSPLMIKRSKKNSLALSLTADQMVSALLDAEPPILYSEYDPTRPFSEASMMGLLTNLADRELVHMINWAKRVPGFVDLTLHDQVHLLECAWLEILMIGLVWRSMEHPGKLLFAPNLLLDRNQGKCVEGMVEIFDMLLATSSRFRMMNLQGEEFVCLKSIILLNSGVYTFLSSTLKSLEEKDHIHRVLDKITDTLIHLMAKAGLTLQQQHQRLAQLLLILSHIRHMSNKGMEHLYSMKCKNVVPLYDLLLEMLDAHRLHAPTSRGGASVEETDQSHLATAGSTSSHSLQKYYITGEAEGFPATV

cells [14] = type: functional, cell-based; remark: listed apart in the source
[15] = target: T5, Serine/threonine-protein phosphatase (Candida dubliniensis (strain CD36 / CBS 7987 / NCPF 3949 / NRRLY-17841) (Yeast), UniProt B9W6M3); assay: blockers of CaCl2-induced CDRE-lacZ signaling – S. cerevisiae, luminescence, secondary, dose response (AID 2388); type: functional, cell-based;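 further: yeast reporter cells carrying a calcineurin-responsive lacZ construct stimulated with calcium chloride; luminescent beta-galactosidase reporter signal in whole cells rather than isolated phosphatase activity; potency for inhibition where a drop in reporter signal means calcineurin blockade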
T5 sequence (B9W6M3 whole entry): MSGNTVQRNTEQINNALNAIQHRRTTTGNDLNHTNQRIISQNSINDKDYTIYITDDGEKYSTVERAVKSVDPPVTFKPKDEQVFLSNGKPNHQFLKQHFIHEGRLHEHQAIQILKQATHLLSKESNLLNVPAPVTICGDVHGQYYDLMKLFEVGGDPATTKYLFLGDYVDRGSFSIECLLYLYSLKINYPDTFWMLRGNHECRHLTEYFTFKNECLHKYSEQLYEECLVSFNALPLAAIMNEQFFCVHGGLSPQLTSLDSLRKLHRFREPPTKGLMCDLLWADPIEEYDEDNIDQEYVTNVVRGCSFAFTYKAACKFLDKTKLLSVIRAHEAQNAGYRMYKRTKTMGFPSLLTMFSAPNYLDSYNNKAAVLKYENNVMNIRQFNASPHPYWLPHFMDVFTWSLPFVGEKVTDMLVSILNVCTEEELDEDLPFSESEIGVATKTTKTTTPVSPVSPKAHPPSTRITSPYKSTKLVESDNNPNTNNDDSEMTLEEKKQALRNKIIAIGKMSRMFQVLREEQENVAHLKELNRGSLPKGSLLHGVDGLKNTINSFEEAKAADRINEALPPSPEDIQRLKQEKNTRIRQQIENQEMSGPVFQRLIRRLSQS

Streptococcus = assay: GAS UMAA2166 growth inhibition – luminescence, BacTiterGlo, counter-screen for streptokinase expression inhibitor project, dose response (AID 1915); type: functional, organism-based;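 further: potency for reduction of bacterial viability or growth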
[16] = decrease of insulin promoter-GFP reporter – imaging, high-content screening, mouse beta cells (AID 1628); type: functional; conditions: MIN6
[17] = fluconazole-exposed Candida albicans growth modulators – fluorescence, retest, confirmation (AID 2467); type: functional, cell-based
cells [18] = type: functional, cell-based; remark: listed apart in the source
[19] = target: ATP-dependent molecular chaperone HSP82 (Candida albicans (strain WO-1) (Yeast), UniProt C4YTQ8); assay: steroid-induced GRE reporter decrease in yeast – S. cerevisiae, luminescence, Hsp90 inhibitor project, dose response (AID 2400); type: functional, cell-based;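 further: beta-galactosidase luminescence from glucocorticoid response element reporter as proxy for Hsp90 function; inhibitor potency where signal loss means Hsp90 inhibition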
[20] = NIH-3T3 fibroblast cytotoxicity, dose response, cytotoxicity control, cell-based, fluorescence, Alamar Blue, secondary assay (AID 2327); type: functional;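 further: NIH-3T3 mouse fibroblasts cultured with fluconazole at 8 µg/mL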
[21] = HPDE-C7 pancreatic duct cell viability loss – fluorescence, HTS (AID 430); type: functional, cell-based; conditions: Homo sapiens
[22] = target: Heat shock protein HSP 90-alpha (Homo sapiens, UniProt P07900); type: functional, organism-based
[23] = viability loss of HPDE-C7K cells – cell-based, fluorescence, HTS, primary screen (AID 431); type: functional; conditions: Homo sapiens
Vero = assay: cells; type: functional, cell-based; conditions: Chlorocebus sabaeus
HEK293 = assay: EBV LMP1 TES2 canonical NF-kB signalling blockers – cell-based, HEK293, luciferase, cherry-pick, dose response (AID 588343); type: functional; conditions: Homo sapiens
[24] = MIN6 cell viability loss – mouse insulinoma, cytotoxicity control, dose response (AID 2122); type: functional;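 further: confirmatory high-throughput counterscreen run to flag cytotoxic compounds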
[25] = test system: Streptococcus sp. 'group A'; assay: Streptococcus pyogenes SK(-)GAS viability under kanamycin – luminescence, BacTiterGlo, confirmation, counter-screen for streptokinase expression inhibitor project, dose response (AID 1900); type: functional, organism-based

Chain of Beta-adrenergic receptor kinase 1 (P25098 whole entry, the tested form may be a part): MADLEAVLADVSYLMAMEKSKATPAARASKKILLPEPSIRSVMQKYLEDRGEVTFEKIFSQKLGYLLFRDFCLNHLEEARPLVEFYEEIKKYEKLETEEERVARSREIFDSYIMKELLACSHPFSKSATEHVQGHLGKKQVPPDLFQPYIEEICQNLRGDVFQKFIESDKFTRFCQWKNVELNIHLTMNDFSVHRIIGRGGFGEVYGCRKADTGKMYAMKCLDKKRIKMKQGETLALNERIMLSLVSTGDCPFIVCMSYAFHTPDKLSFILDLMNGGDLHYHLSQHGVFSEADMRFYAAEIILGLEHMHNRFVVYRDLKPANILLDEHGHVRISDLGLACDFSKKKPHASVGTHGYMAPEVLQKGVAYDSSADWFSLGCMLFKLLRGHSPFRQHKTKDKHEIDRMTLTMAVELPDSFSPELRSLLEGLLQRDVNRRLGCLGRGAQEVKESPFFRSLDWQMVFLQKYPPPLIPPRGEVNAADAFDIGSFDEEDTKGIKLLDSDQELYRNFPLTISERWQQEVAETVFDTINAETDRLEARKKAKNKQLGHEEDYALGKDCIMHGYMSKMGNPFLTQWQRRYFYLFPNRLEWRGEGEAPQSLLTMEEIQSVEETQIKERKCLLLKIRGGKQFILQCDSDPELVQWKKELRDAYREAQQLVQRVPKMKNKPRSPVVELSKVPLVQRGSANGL
Chain of Exodeoxyribonuclease V (P04993 whole entry): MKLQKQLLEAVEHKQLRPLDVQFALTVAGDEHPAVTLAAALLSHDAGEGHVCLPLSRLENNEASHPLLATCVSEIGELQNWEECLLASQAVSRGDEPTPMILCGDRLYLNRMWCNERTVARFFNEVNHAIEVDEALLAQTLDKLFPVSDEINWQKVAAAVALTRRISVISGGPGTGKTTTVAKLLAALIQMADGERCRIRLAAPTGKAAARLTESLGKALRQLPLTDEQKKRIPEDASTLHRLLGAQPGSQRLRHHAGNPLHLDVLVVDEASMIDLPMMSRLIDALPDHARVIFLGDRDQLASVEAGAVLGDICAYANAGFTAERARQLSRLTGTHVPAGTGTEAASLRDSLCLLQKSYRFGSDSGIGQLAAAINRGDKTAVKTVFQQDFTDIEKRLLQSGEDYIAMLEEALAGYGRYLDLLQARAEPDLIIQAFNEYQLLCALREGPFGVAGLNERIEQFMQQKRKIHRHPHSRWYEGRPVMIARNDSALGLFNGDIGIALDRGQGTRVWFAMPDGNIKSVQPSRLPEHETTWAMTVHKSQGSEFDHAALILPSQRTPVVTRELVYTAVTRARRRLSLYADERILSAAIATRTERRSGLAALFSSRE
Chain of Exodeoxyribonuclease V (P07648 whole entry): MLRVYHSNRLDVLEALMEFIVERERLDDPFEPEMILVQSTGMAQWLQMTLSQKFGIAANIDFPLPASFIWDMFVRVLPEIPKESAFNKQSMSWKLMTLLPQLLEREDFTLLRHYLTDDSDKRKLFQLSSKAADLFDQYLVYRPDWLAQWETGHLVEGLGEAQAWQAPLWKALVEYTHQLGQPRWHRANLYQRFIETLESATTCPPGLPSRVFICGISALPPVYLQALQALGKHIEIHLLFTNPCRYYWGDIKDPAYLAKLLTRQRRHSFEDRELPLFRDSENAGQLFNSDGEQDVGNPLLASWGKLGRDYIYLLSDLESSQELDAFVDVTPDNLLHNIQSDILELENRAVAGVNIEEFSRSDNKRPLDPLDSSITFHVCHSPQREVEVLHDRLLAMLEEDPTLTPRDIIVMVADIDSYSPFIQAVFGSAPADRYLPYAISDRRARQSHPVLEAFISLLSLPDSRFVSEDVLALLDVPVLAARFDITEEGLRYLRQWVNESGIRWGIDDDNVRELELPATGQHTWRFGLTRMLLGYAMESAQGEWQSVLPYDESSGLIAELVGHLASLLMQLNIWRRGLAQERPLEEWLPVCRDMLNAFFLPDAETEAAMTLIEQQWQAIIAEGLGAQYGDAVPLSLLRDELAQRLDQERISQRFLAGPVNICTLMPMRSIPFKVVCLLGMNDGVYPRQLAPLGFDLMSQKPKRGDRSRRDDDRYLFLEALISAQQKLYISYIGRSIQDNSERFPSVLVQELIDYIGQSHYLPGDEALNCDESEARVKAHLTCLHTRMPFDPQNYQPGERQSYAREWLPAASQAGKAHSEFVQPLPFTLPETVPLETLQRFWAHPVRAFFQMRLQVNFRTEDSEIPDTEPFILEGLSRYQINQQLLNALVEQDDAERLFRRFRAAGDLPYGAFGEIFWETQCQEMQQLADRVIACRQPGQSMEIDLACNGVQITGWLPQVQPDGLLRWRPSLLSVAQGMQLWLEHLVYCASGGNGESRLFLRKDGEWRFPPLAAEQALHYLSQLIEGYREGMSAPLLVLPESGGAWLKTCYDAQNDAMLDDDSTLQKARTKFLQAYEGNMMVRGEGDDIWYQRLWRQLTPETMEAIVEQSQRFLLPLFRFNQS
Chain of Exodeoxyribonuclease V (P08394 whole entry): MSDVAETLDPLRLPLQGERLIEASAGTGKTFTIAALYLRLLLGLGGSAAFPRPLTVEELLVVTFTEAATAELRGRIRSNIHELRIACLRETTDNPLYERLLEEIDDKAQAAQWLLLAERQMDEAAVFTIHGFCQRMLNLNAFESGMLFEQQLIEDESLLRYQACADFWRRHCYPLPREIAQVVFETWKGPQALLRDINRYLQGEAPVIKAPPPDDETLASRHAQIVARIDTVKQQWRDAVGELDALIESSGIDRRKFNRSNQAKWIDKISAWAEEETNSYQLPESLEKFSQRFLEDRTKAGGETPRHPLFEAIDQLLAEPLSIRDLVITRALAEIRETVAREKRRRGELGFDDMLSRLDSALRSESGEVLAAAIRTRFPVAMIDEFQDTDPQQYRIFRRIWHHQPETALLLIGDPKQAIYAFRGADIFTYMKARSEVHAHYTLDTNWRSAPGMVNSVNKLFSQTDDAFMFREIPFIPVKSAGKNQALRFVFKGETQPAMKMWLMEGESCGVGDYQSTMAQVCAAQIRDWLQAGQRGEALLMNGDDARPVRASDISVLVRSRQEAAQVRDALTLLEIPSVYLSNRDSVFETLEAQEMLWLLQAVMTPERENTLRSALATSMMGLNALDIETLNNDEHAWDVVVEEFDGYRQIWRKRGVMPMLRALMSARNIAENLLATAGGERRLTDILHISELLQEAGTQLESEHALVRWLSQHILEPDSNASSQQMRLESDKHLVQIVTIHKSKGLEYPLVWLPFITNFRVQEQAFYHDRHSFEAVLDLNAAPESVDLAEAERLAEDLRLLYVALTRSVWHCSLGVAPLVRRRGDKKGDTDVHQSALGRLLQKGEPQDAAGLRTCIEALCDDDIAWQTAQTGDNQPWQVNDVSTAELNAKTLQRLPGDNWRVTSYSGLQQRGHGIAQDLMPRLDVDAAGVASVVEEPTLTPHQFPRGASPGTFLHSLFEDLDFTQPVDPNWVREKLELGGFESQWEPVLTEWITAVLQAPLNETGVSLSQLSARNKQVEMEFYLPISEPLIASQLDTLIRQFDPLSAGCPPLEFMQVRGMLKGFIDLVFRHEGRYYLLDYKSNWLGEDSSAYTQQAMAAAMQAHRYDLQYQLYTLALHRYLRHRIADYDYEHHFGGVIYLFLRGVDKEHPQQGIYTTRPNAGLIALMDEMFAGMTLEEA
Chain of ATP-dependent molecular chaperone HSP82 (C4YTQ8 whole entry): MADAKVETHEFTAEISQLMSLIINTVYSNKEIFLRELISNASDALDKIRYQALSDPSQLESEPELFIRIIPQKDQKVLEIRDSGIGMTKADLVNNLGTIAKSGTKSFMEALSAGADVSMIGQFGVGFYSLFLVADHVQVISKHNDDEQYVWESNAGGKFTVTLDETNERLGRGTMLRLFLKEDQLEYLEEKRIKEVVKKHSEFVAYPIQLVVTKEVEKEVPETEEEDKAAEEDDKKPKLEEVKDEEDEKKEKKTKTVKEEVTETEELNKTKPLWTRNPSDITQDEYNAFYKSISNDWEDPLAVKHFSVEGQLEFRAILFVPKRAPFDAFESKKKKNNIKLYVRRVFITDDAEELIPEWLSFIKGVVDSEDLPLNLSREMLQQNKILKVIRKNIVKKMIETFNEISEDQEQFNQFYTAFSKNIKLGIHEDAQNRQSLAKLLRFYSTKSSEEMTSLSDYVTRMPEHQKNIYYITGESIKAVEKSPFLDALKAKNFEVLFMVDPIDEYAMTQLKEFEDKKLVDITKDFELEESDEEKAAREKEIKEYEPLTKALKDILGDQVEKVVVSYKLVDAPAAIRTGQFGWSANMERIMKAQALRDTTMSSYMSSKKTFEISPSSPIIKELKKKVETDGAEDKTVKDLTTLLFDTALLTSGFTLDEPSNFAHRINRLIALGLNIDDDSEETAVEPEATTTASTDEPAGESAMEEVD
Chain of Cytochrome P450 3A4 (P08684 whole entry): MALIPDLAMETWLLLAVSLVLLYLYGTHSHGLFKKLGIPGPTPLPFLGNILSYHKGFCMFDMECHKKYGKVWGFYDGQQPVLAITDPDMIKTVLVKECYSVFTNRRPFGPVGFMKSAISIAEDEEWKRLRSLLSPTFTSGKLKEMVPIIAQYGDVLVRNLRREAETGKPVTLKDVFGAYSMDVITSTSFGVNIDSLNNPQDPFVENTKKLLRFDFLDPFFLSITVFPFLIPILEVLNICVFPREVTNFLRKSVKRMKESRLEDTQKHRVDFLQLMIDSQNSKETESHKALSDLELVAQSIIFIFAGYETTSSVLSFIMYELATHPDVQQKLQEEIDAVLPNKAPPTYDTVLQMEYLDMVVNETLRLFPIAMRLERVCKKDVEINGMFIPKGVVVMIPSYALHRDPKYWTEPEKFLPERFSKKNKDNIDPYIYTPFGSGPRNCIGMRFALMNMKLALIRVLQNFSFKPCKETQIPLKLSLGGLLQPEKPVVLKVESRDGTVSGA

O=C(c1ccc(Br)cc1)c1cc([N+](=O)[O-])ccc1N1CCCCC1
EC50 (BJ [1]): 0.697 µM (active)
EC50 (BJ [2]): 0.464 µM (active)
EC50 [3]: 0.892 µM (active)
EC50 [4]: 0.694 µM (active)
EC50 [5]: > 12 µM (inconclusive)
EC50 [6]: < 0.1 µM (active)
AC50 (Paired box protein Pax-8): 2.73 µM (active)
IC50 [7]: > 80 µM (inactive)
EC50 (cells [8]): 1.49 µM (active)
EC50 [9]: 0.623 µM (active)
AC50 (Cytochrome P450 1A2): 2 µM (inconclusive)
IC50 (Jurkat): > 80 µM (inactive)
EC50 (BJ [10]): 1.12 µM (inconclusive)

Cc1nc(Cl)c2c(n1)N=C1CCCC(O)=C1O2
AC50 (ORF 73): 8.8 µM (active)
AC50 (Keap1/Nrf2): 15.1 µM (active)

O=C(CCS(=O)(=O)c1ccc(Br)cc1)NCCc1ccc(Cl)cc1
EC50 [11]: 7.06 µM (active)

O=C(CCS(=O)(=O)c1ccc(Br)cc1)NCc1cccs1
EC50 [11]: 1.79 µM (active)
IC50 [12]: 48 µM (active)

COCC(=O)N1CCC2(CC1)CN(C(c1ccccc1)c1ccccc1)C2
AC50 (Cytochrome P450 3A4): inconclusive

Cc1cccc(NC(=O)Cn2cc(C(=O)c3ccco3)c3ccccc32)c1
IC50 [13]: > 119 µM (inactive)
IC50 (Exodeoxyribonuclease V): > 119 µM (inactive)
IC50 (Estrogen receptor): > 50 µM (not active)

Oc1c(C(Nc2nc3ccccc3s2)c2ccco2)ccc2cccnc12 (centres undefined)
EC50 (cells [14]): > 350 µM (not active)
IC50 [13]: > 119 µM (inactive)
EC50 [15]: > 180 µM (inactive)
EC50 (Streptococcus): 5.98 µM (active)
IC50 [16]: 1.21 µM (active)
EC50 [17]: 0.854 µM (active)
EC50 (cells [18]): 9.09 µM (active)
EC50 [19]: 33.4 µM (active)
EC50 [20]: 12.9 µM (active)
EC50 [21]: 8.6 µM (active)
IC50 (Exodeoxyribonuclease V): > 119 µM (inactive)
AC50 [22]: 24.1 µM (active)
EC50 [23]: 6.19 µM (active)
IC50 (Vero): > 25 µM (active)
AC50 (HEK293): 6.93 µM (active)
IC50 [24]: 0.896 µM (active)
EC50 [25]: 1.76 µM (active)
